# pKi: −log10 of the molar value.
# Legend:
# HIV-1 isolate of HIV IIB = experiment: HIV replication in de novo infected lymphocyte cultures, viral core protein p24 endpoint; format: cell-based, HIV-1 (in human peripheral blood lymphocytes); conditions: FIG. 1, p24
# Protocol: For this purpose, SAM has been tested in a dose response titration ranging from 1000 μg/mL to 10 μg/mL final concentrations for the ability to inhibit HIV replication in de novo infected cells. Endpoint in this assay was the quantitative determination of the concentration of the viral core protein p24 as described by Mueller et al. (Mueller, Ch., Moritz, R., Prigge, G., Weitzel, D., Kunze, R., Kage, A., Koettgen, E., Fresenius Z. Anal. Chem.,330, 352-353, 1988). […] The toxicity testing of cellular proliferation was performed according to J. Mosmann (J. Immunological Methods, 65, 55-63, 1983). […] All experiments were carried out in triplicate cultures, including those for the various concentrations of the molecular complexes tested.--The lymphocytes were infected with a standardized preparation of HIV-1 isolate of HIV IIB. The cells were sedimented by low speed centrifugation, the sediment resuspended in the assay buffer (standard), and the resuspended cells were inoculated by adjusting to the following conditions: 100 ng of viral core protein p24/mL and 3200 pg HIV RNA/mL, respectively. Normally 3×10^8 lymphocytes were suspended in 1 mL if the HIV inoculum, and incubated at 37° C. for 60 minutes. After washing the cells twice with 50 mL of culture medium the cells were resuspended at a concentration of 3×10^6 cells/mL in culture medium which contains 10 units/mL of human recombinant interleukin-2. 100 μL of this cell suspension were added to 100 μL of the pre-diluted solution of the compounds to be tested, without adding any salt or protein. The entire assay was cultivated in humidified atmosphere in the presence of 5% CO2 at 37° C. After the 4th day of infection the viral replication was determined in the lymphocyte cultures. The end point of the titration was the determination of the viral core protein p24 in the supernatant of each of the lymphocyte cultures. 150 μL of the supernatant were removed and transferred to a vial containing 50 μL/well SDS at a final concentration of 0.08% (w/w). The concentration of the synthesized p24 by the HIV infected cells was determined according to Mueller et al., using recombinant p24 as a standard for calibration.
# IL-β, IL-2 = experiment: Cytokine biosynthesis after stimulation of lymphocytes; format: cell-based; conditions: after phytohemagglutination stimulation
# HIV = experiment: TPA- or cytokine-stimulated HIV replication/expression; format: cell-based; conditions: in vitro
# thymidylate kinase = experiment: Inhibition of thymidylate kinase, in vitro; format: biochemical
# [1] = tested on: RT (triphosphatase activity); experiment: Triphosphatase activity in presence of RT and phosphate; format: biochemical, HIV; conditions: in the presence of phosphate (Pi)
# Excerpt: Furthermore the efficiency of such molecular complexes is also seen on the rate at which they are metabolized intra cellularly to the corresponding free ddNMP available to be further transformed to the triphosphate derivative active on the RT, which is enhanced due to these molecular complexes as shown through the kinetics in-vitro and in-vivo. In order to make this transformation feasible, the unique and stable molecular conformation of these complexes and their solvation facilitates the inhibitory and regulatory effects on RT, lipid penetration and inhibitory effects on the growing infective RNA or DNA polymeric chains. The avoidance of e.g. AZT-monophosphate accumulation, similarly also for other ddN N3 compounds, which causes severe inhibition of cellular dTMP kinase, resulting in a blockade of further phosphorylation steps, while on the contrary, the disclosed molecular complexes, appear to be unable to induce the same effects and is clearly incapable of inhibiting their own phosphorylation. This is completely different from those of the single administration of the components, e.g. SAM and ddN≈N3. […] This is also endorsed by the findings that the kinetics of inhibition on the RT enzyme is influenced by the presence of inorganic phosphate resulting in restoring active ATP during the presence of SAM. […]
# [2] = human, in vivo
# [3] = target: T1, reverse transcriptase (RT) (HIV-1 M:B_HXB2R, UniProt P04585); conditions: read-out: apparent Ki (recalculated, corrected for DTT); recalculated from literature
# Excerpt: The disclosed inhibitory concentrations of SAM is meant as the apparent concentration of SAM, which inhibits under their in vitro assay conditions 50% of the RT activity. […] Inhibitory experiments using DTT, e g. for protecting sulfhydryl groups of the enzyme (RT), in their assay have to be omitted or corrected for, respectively, since DTT act as a strong reducing agent, particularly for SAM or SAM-tosylate-bis-sulfate which potentiates the reduction due to the sulfonium group which is being reduced to the sulfinium group, or to S-S-complexes comprising of SAM and DDT, respectively. […] Note, the determined inhibitory concentrations are not the ones which can be correlated to the ones according to Michaelis-Mentenkinetics.
# [4] = target: T1, reverse transcriptase (RT); format: biochemical; design: A2: RT in cord-blood lymphocyte cultures infected with HIV from an AIDS patient
# Protocol: The second in-vitro test uses the enzymatic activity of RT, testing the kinetic and inhibitory action of the molecular complexes. The cloning of the RT in biologically active form made it possible to have large quantities of the RT enzyme available for these studies (RT from Sigma, lot # R 9376).
# The steady state reaction conditions for RT are chosen that approximate physiological conditions are met: pH 7.45 (37° C.), ionic strength of 150 mM, routinely a buffer was employed consisting of 50 mM TRIS-HCl, 100 mM KCl, 5 mM MgCl2, the addition of 10 μg/mL bovine serum albumin were included. […] The aforementioned precautions designed to avoid potential reduction of SAM in the presence of DTT are taken into accounts to preclude any distortions of the kinetic behavior of the RT enzyme in the presence of the various substrates e.g. as our molecular compounds. […] The enzyme concentrations of RT was approx. 20 nM, T-P (template-primer) […] and 25 μM of [^3 H]-dNTP (assay conditions are modified fro those of Mayunder et al., J. biol. Chem.,263, 15657, 1988). […] In case both parameters are effected to the same extent, then the inhibition is uncompetitive. In order to facilitate the difference between SAM kinetics and those for the molecular complexes we studied first SAM kinetics and subsequently the kinetics in the presence of the molecular complexes. […] Similar experiments have been carries out with dGTP.
# The enzyme was assayed with 50 nM primer sites on poly (rA): oligo (dT), and variable concentrations of [^3 H] dTP as substrates in a reaction mixture as described above at pH 7.5 (37° C.).
compound,measurement,setting,value
"C[S+](CC[C@H](N)C(=O)O)C[C@H]1O[C@@H](n2cnc3c(N)ncnc32)[C@H](O)[C@@H]1O (single isomer, unassigned; (+)) [SAM, (+)-5'-[(3-amino-3-carboxypropyl)methylsulfinio]-5'-deoxyadenosine]",inhibition of HIV replication,HIV-1 isolate of HIV IIB,inhibited HIV replication in a dose dependent response
same,"cytokine biosynthesis (IL-β, IL-2)","IL-β, IL-2",influenced
same,cytokine-activation of HIV expression,HIV,does not inhibit cytokine-activation of HIV expression in vitro
same,inhibition of thymidylate kinase,thymidylate kinase,reversal of the inhibition of the thymidylate kinase
same,triphosphatase activity,[1],stimulated
same,CSF peak of SAM relative to plasma,[2],lower and more prolonged for healthy patients
same,pKi,[3],6.60 to 6.70
same,fraction unbound,in vitro,0.95 to 0.97
same,stability in RT assay with DTT,[4],destroy SAM

# Reference: patent US6117849A, “S-(+)-adenosylmethionine and 3'-azido-2', 3'-dideoxy-nucleoside complexes as potent inhibitors of HIV-replication” (Symbio Herborn Group GmbH & Co., priority 1996, dated 2000)
